{"source": "patent US7563774B2", "about": "“Combination of FBPase inhibitors and antidiabetic agents useful for the treatment of diabetes” (Metabasis Therapeutics, Inc., priority 2000, dated 2009)", "key": {"[1]": {"tested_on": "Db/db or ob/ob mice", "assay": "Acute combination treatment of a glycogen phosphorylase inhibitor and an FBPase inhibitor in db/db or ob/ob mice (Example FF)", "format": "in vivo, mouse", "conditions": "0.5 to 300 mg/kg p.o.", "procedure": "(§1) Db/db or ob/ob mice are purchased at 5 weeks of age from Jackson Laboratories (Bar Harbor, Me.). The mice are maintained under standard vivarium conditions (24-26° C., 12-hour light cycle, 12-hour dark cycle) and receive standard chow and water ad libitum. At more than 10 weeks of age, animals are divided into 4 groups (n=5 to 7/group). […] Food is made available after treatment. Blood glucose levels in tail vein samples are measured by means of standard manual or automated methods."}, "[2]": {"tested_on": "ZDF rats", "assay": "Chronic combination treatment of an insulin secretagogue and an FBPase inhibitor in the ZDF rat (Example Y)", "format": "in vivo", "conditions": "maximal doses, 2 to 12 weeks", "source_text": "Male ZDF rats are purchased at 7 weeks of age from Genetics Models Inc. (Indianapolis, Ind.). […] At 8 weeks of age, animals are divided into 4 treatment groups (n=8/group). The treatments are control, Compound J, glyburide, and the combination of Compound J and glyburide. […] Other parameters measured by standard assays include: lactate, glycerol, alanine, triglycerides, free fatty acids, ketone bodies, hepatic and muscle glycogen, cholesterol, VLDL, HDL, hemoglobin Alc, body weight, food and water intake, as well as other measures of carbohydrate, lipid, and protein metabolism. […] Differences between groups are evaluated ANOVA using an appropriate post hoc test. Results are considered significant with p<0.05."}, "[3]": {"tested_on": "streptozotocin diabetic Sprague Dawley rats", "assay": "Acute combination treatment of an FBPase inhibitor and an amylin agonist in streptozotocin diabetic rats (Example HH)", "format": "in vivo, rat", "conditions": "pramlintide 10 micrograms i.v., Compound J 300 mg/kg p.o.", "procedure": "Animals are then gavaged with 1 mL 50% glucose, and allowed ad libitum access to food. Blood glucose is collected from the tail vein at 0, 30, 60, 120, 180, and 240 minutes following glucose administration."}, "[4]": {"tested_on": "Goto-Kakizaki rats", "assay": "Acute combination treatment of an alpha glucosidase inhibitor and an FBPase inhibitor in Goto-Kakizaki rats (Example EE)", "format": "in vivo, rat", "procedure": "Goto-Kakizaki rats, an animal model of lean NIDDM, were purchased at 5 weeks of age from Charles River Japan, Inc. (Tokyo, Japan). The rats were maintained under standard vivarium conditions (24-26° C., 12-hour light cycle, 12-hour dark cycle) and received standard chow and water ad libitum. At 18 weeks of age, animals were divided into 4 groups (n=5/group). The treatment groups were control, Compound J, acarbose (Bayer, Japan), and the combination of Compound J and acarbose. All animals were given 1 g/kg of corn starch by oral gavage. […] Acarbose was administered orally at a dose of 1 mg/kg simultaneously with starch. Blood glucose levels in tail vein samples were measured by means of a Glucoloader-F, an automatic glucose analyzer, (A&T Co., Ltd., Tokyo, Japan)."}, "[5]": {"tested_on": "C57BL/KsJ db/db mice", "assay": "Acute combination treatment of a biguanide and an FBPase inhibitor in db/db mice (Example DD)", "format": "in vivo, mouse", "procedure": "Male C57BL/KsJ db/db mice were purchased at 5 weeks of age from Clea Japan, Inc. (Tokyo, Japan). The mice were maintained under standard vivarium conditions (24-26° C., 12-hour light cycle, 12-hour dark cycle) and received standard chow and water ad libitum. […] The treatment groups were control, compound J , metformin, and the combination of compound J and metformin. […] Food was removed after treatment. Blood glucose levels in tail vein samples were measured by means of a Glucoloader-F, an automatic glucose analyzer, (A&T Co., Ltd., Tokyo, Japan)."}, "[6]": {"tested_on": "Db/db or ob/ob mice", "assay": "Acute combination treatment of a glucose-6-phosphatase inhibitor and an FBPase inhibitor in db/db or ob/ob mice (Example GG)", "format": "in vivo, mouse", "conditions": "0.5 to 300 mg/kg p.o.", "procedure": "as §1, with “is either withheld or” for “is”"}, "[7]": {"tested_on": "Goto-Kakizaki (GK) rats", "assay": "Acute combination treatment of insulin and an FBPase inhibitor in the Goto-Kakizaki rat (Example CC)", "format": "in vivo", "procedure": "Male Goto-Kakizaki (GK) rats were purchased at 9 weeks of age from Charles River Japan, Inc. (Tokyo, Japan). The rats were maintained under standard vivarium conditions (24-26° C., 12-hour light cycle, 12-hour dark cycle) and received standard chow and water ad libitum. At 48 weeks of age, animals were divided into 4 groups (n=6/group) after an overnight fast. The treatment groups were control, Compound J, insulin, and combination of Compound J and insulin. […] Insulin (human recombinant insulin, Penfill N300, Novo Nordisk, Denmark) was subcutaneously injected at the dose of 1.5 U/kg. Blood glucose levels in tail vein samples were measured by means of a Glucoloader-F, an automatic glucose analyzer, (A&T Co., Ltd., Tokyo, Japan)."}, "[8]": {"tested_on": "Zucker Diabetic Fatty rats", "assay": "Acute combination treatment of an insulin secretagogue and Compound J in the ZDF rat (Example X)", "format": "in vivo", "procedure": "Experimental Protocol: Zucker Diabetic Fatty rats (9.5 weeks of age) were fasted for 5 hours starting at 8 am. The animals were then divided into 4 treatments groups with statistically similar baseline blood glucose levels. Test compounds were administered by oral gavage. The treatments were as shown below:\nOne hour after saline or drug administration, all animals received a simulated meal in the form of an oral bolus of glucose (1 g/kg). Blood glucose was then monitored at regular time intervals for 3 hours. Test compounds were prepared as suspensions in 0.1% carboxymethylcellulose. Blood samples were obtained by nicking of a tail vein. Blood glucose was measured by means of a HemoCue glucose analyzer according to the manufacturer's instructions (HemoCue Inc., Mission Viejo, Calif.). Results are expressed as the mean ± standard error of the mean for all values."}, "[9]": {"conditions": "glyburide 100 mg/kg, Compound J 300 mg/kg p.o."}}, "data": [{"compound": "CCOC(=O)[C@H](C)NP(=O)(N[C@@H](C)C(=O)OCC)c1ccc(-c2nc(N)sc2CC(C)C)o1", "note": "[Compound J, 2-Amino-5-isobutyl-4-{2-[5-(N,N′-bis((S)-1-ethoxycarbonyl)ethyl)phosphonamido]furanyl}thiazole]", "values": [{"measurement": "blood glucose lowering", "setting": "[1]", "value": "significantly lower blood glucose relative to control values"}, {"measurement": "glycemic control", "setting": "[2]", "value": "more effective than glyburide as pancreatic function declines"}, {"measurement": "postprandial glucose excursion", "setting": "[3]", "value": "attenuated the postprandial glucose excursion"}, {"measurement": "Plasma Glucose, relative value (% of pre-treatment value)", "setting": "[4]; 0 min", "value": "(121.8 +/− 8.0) %"}, {"measurement": "Plasma Glucose", "setting": "[4]; 0 min, Compound J 10 mg/kg p.o. at −60 min, acarbose 1 mg/kg p.o. with starch", "value": "218.4 ± 19.9", "unit": "mg/dL"}, {"measurement": "Plasma Glucose", "setting": "[4]; 30 min after starch", "value": "245.2 ± 29.9", "unit": "mg/dL"}, {"measurement": "Plasma Glucose, relative value (% of pre-treatment value)", "setting": "[4]; 30 min after starch", "value": "(135.2 +/− 9.2) %"}, {"measurement": "Plasma Glucose", "setting": "[4]; 60 min after starch", "value": "251.0 ± 28.6", "unit": "mg/dL"}, {"measurement": "Plasma Glucose, relative value (% of pre-treatment value)", "setting": "[4]; 60 min after starch", "value": "(138.5 +/− 6.2) %"}, {"measurement": "Plasma Glucose", "setting": "[4]; 120 min after starch", "value": "182.8 ± 18.0", "unit": "mg/dL"}, {"measurement": "Plasma Glucose, relative value (% of pre-treatment value)", "setting": "[4]; 120 min after starch", "value": "(101.8 +/− 7.2) %"}, {"measurement": "Plasma Glucose", "setting": "[4]; 240 min after starch", "value": "144.6 ± 9.8", "unit": "mg/dL"}, {"measurement": "Plasma Glucose, relative value (% of pre-treatment value)", "setting": "[4]; 240 min after starch", "value": "(81.7 +/− 6.7) %"}, {"measurement": "Plasma Glucose, relative value (% of pre-treatment value)", "setting": "[4]; −60 min", "value": "(100.0 +/− 0.0) %"}, {"measurement": "Plasma Glucose", "setting": "[4]; −60 min relative to starch 1 g/kg", "value": "179.8 ± 15.2", "unit": "mg/dL"}, {"measurement": "Plasma Glucose, % of pretreatment value", "setting": "[5]; after 2 hour", "value": "(70.2 +/− 14.6) %"}, {"measurement": "Plasma Glucose", "setting": "[5]; after 2 hour, Compound J and/or metformin 150 mg/kg p.o.", "value": "448.6 ± 42.5", "unit": "mg/dL"}, {"measurement": "Plasma Glucose", "setting": "[5]; after 4 hour", "value": "376.7 ± 39.9", "unit": "mg/dL"}, {"measurement": "Plasma Glucose, % of pretreatment value", "setting": "[5]; after 4 hour", "value": "(72.4 +/− 5.0) %"}, {"measurement": "Plasma Glucose", "setting": "[5]; after 6 hour", "value": "357.7 ± 40.4", "unit": "mg/dL"}, {"measurement": "Plasma Glucose, % of pretreatment value", "setting": "[5]; after 6 hour", "value": "(68.7 +/− 5.5) %"}, {"measurement": "Plasma Glucose", "setting": "[5]; after 8 hour", "value": "386.5 ± 43.1", "unit": "mg/dL"}, {"measurement": "Plasma Glucose, % of pretreatment value", "setting": "[5]; after 8 hour", "value": "(74.2 +/− 5.8) %"}, {"measurement": "Plasma Glucose", "setting": "[5]; before (0 hour)", "value": "514.3 ± 23.0", "unit": "mg/dL"}, {"measurement": "Plasma Glucose, % of pretreatment value", "setting": "[5]; before (0 hour)", "value": "(100.0 +/− 0.0) %"}, {"measurement": "blood glucose lowering", "setting": "[5]; db/db mice, acute", "value": "lowered blood glucose significantly relative to controls"}, {"measurement": "blood glucose lowering", "setting": "[6]", "value": "significantly lower blood glucose relative to control values"}, {"measurement": "plasma glucose lowering", "setting": "[7]; GK rats, acute", "value": "progressively decreased plasma glucose"}, {"measurement": "Plasma Glucose, % of before", "setting": "[7]; after 2 hour", "value": "(65.6 +/− 6.6) %"}, {"measurement": "Plasma Glucose", "setting": "[7]; after 2 hour, Compound J 50 mg/kg p.o., insulin 1.5 U/kg s.c.", "value": "106.3 ± 11.0", "unit": "mg/dL"}, {"measurement": "Plasma Glucose", "setting": "[7]; after 4 hours", "value": "79.6 ± 4.9", "unit": "mg/dL"}, {"measurement": "Plasma Glucose, % of before", "setting": "[7]; after 4 hours", "value": "(51.0 +/− 2.7) %"}, {"measurement": "Plasma Glucose", "setting": "[7]; after 6 hours", "value": "35.4 ± 10.8", "unit": "mg/dL"}, {"measurement": "Plasma Glucose, % of before", "setting": "[7]; after 6 hours", "value": "(22.6 +/− 6.7) %"}, {"measurement": "Plasma Glucose", "setting": "[7]; before (0 hour)", "value": "161.8 ± 6.6", "unit": "mg/dL"}, {"measurement": "Plasma Glucose, % of before", "setting": "[7]; before (0 hour)", "value": "(100.0 +/− 0.0) %"}, {"measurement": "blood glucose after oral glucose load (FIG. 1)", "setting": "[8]; [9]", "value": "lowering blood glucose to below baseline levels"}, {"measurement": "blood lactate levels (FIG. 2)", "setting": "[8]; [9]", "value": "increase in blood lactate levels"}, {"measurement": "AUC glucose", "setting": "[8]; initial 4 hours post drug, glyburide 100 mg/kg, Compound J 300 mg/kg p.o., oral glucose 1 g/kg", "value": "1121 ± 82", "unit": "mg·h/dL"}, {"measurement": "maximally efficacious dose", "setting": "[8]; pilot studies, ZDF rat", "value": 300, "unit": "mg/kg"}]}]}
